Laboratory results: ChEMBL document CHEMBL1201862, “PubChem BioAssay data set” (2004)
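Tested at 5 concentrations; 48 h exposure; 96-well plates; endpoints linearly interpolated, else capped at highest concentration. GI50 marks 50% less growth.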 The source made the active and inactive calls. Rule as the data show it: active = GI50 up to about 1.1 µM and inactive = higher. Peptide text beside a SMILES is read from it. * marks the point of attachment. Cbz = O=C(OCc1ccccc1)*

How the values were obtained:
Assay in all cases: inhibition of tumour cell growth, NCI panel, 48 h
[1] = system: MDA-MB-435
[2] = system: Hs-578T
[3] = system: IGROV-1
[4] = system: NCI/ADR-RES
[5] = system: LOX IMVI
[6] = system: A498
[7] = system: KM12
[8] = system: EKVX
[9] = system: SW-620
[10] = system: SF-295
[11] = system: SR
[12] = system: UO-31
[13] = system: OVCAR-5
[14] = system: SK-MEL-28
[15] = system: U-251
[16] = system: NCI-H226
[17] = system: RXF 393
[18] = system: UACC-257
[19] = system: SNB-75

Measured: GI50

CCCCCCCC(=O)N/N=C/c1ccc(Sc2nccn2C)c([N+](=O)[O-])c1
inactive: [1] 13.6 µM | [2] 18.5 µM | [3] 6.79 µM | [4] 17.7 µM | [5] 10.4 µM | [6] 15.2 µM | [7] 14.1 µM | [8] 14.7 µM | [9] 14.9 µM | [10] 15.6 µM | [11] 18.8 µM | [12] 10.3 µM | [13] 18.2 µM | [14] 13.9 µM | [15] 16.2 µM | [16] 14.5 µM | [17] 14.7 µM | [18] 13.7 µM | [19] 15.5 µM

C1CSCCCSCCCSCCCSCCCSC1
inactive: [1] 41.9 µM | [2] 44.8 µM | [3] 31.1 µM | [4] 14.9 µM | [5] 17.4 µM | [6] 36.2 µM | [7] 25.4 µM | [8] 24.5 µM | [9] 56.5 µM | [10] 22.2 µM | [11] 11.4 µM | [12] 26.8 µM | [13] 57.8 µM | [14] > 100 µM | [15] 42.5 µM | [16] 25.5 µM | [17] 42.9 µM | [18] 25.5 µM | [19] 20.1 µM

CCOC(=O)c1ccc(Nc2c3c(nc4ccccc24)CCCC3)cc1
inactive: [1] 1.77 µM | [2] 27.5 µM | [3] 4.91 µM | [4] > 30.3 µM | [5] > 21.2 µM | [6] 15.3 µM | [7] 3.54 µM | [8] > 54.2 µM | [9] 4.2 µM | [10] 17.1 µM | [11] 25.4 µM | [12] > 34.3 µM | [13] > 60 µM | [14] > 100 µM | [15] 22.9 µM | [16] > 100 µM | [17] 33.9 µM | [18] > 86.1 µM | [19] 6.73 µM

C=C1c2nc3ccccc3n2C=C(c2ccccc2)N1c1ccc(Cl)cc1
inactive: [1] > 82.8 µM | [2] 21.3 µM | [3] 10.6 µM | [4] 23.6 µM | [5] 45.8 µM | [6] > 48.9 µM | [7] 24 µM | [8] 13.4 µM | [9] 26.5 µM | [10] 12.6 µM | [11] 64.7 µM | [12] 53.1 µM | [13] 21.7 µM | [14] > 100 µM | [15] 13.1 µM | [16] 29 µM | [17] 17.5 µM | [18] 32.2 µM | [19] 5.12 µM

O=C(Nc1ccccc1C(=O)O)/C(=C/c1ccccc1)NC(=O)c1ccccc1
inactive: [1] > 100 µM | [2] > 100 µM | [3] > 100 µM | [4] > 100 µM | [5] > 100 µM | [6] > 100 µM | [7] > 100 µM | [8] > 100 µM | [9] > 100 µM | [10] > 100 µM | [11] > 100 µM | [12] > 100 µM | [13] > 100 µM | [14] > 100 µM | [15] > 100 µM | [16] > 100 µM | [17] 65.9 µM | [18] > 100 µM | [19] > 100 µM

COC(=O)C12C3C4C1C1C2C3C41C(=O)NC(C)(C)CC(=O)O (stereo not given)
inactive: [1] > 100 µM | [2] > 100 µM | [3] > 100 µM | [4] > 100 µM | [5] > 100 µM | [6] > 100 µM | [7] > 100 µM | [8] > 100 µM | [9] > 100 µM | [10] > 100 µM | [11] > 100 µM | [12] > 100 µM | [13] > 100 µM | [14] > 100 µM | [15] > 100 µM | [16] > 100 µM | [17] > 100 µM | [18] > 100 µM | [19] > 100 µM

Cc1cc2c(cc1Cl)SC(NS(=O)(=O)c1ccc(Cl)cc1)=NS2(=O)=O
inactive: [1] 91.6 µM | [2] 41.5 µM | [3] 89.5 µM | [4] > 100 µM | [5] 49.2 µM | [6] 30.4 µM | [7] > 100 µM | [8] 38.4 µM | [9] 41.6 µM | [10] 23 µM | [11] 10.3 µM | [12] > 100 µM | [13] 35.4 µM | [14] > 100 µM | [15] > 100 µM | [16] 33.5 µM | [17] 13.6 µM | [18] 46.8 µM | [19] 35.2 µM

N=C(N)c1ccc(/N=N\c2c(O)c(C(=O)Nc3ccccc3)cc3ccccc23)cc1
inactive: [1] 41.5 µM | [2] 27.3 µM | [3] 18.7 µM | [4] > 100 µM | [5] 2.02 µM | [6] > 100 µM | [7] 16.4 µM | [8] 17 µM | [9] 15.6 µM | [10] > 60.3 µM | [11] 7.89 µM | [12] 75.5 µM | [13] 31.6 µM | [14] > 100 µM | [15] 3.76 µM | [16] 34.8 µM | [17] > 43.4 µM | [18] > 68.7 µM | [19] 12.9 µM

COC1CCN(N(C)C)O1 (stereo not given)
inactive: [1] > 100 µM | [2] > 100 µM | [3] > 100 µM | [4] > 100 µM | [5] > 100 µM | [6] > 100 µM | [7] > 100 µM | [8] > 100 µM | [9] > 100 µM | [10] > 100 µM | [11] > 100 µM | [12] > 100 µM | [13] > 100 µM | [14] > 100 µM | [15] > 100 µM | [16] > 100 µM | [17] > 100 µM | [18] > 100 µM | [19] > 100 µM

NCCNCCCNC(=O)c1cc(-c2ccccc2)nc2ccccc12
inactive: [1] 20.8 µM | [2] 48.3 µM | [3] > 100 µM | [4] > 100 µM | [5] 28.3 µM | [6] 41.7 µM | [7] 33.1 µM | [8] > 100 µM | [9] 34 µM | [10] 28.6 µM | [11] 28.3 µM | [12] 46 µM | [13] 46.3 µM | [14] 16.7 µM | [15] 17.6 µM | [16] > 100 µM | [17] 38.8 µM | [18] 24.1 µM | [19] > 10 µM

O=c1c2cc(I)ccc2nc(SCc2nnco2)n1Cc1ccccc1
inactive: [1] > 100 µM | [2] 31.7 µM | [3] 80.7 µM | [4] > 100 µM | [5] > 100 µM | [6] 50.8 µM | [7] > 100 µM | [8] 29 µM | [9] > 100 µM | [10] 98.2 µM | [11] > 100 µM | [12] 1.39 µM | [13] > 100 µM | [14] > 100 µM | [15] > 100 µM | [16] > 100 µM | [17] 58.1 µM | [18] > 100 µM | [19] 56.5 µM

O=C(O)c1ccccc1/C=N/N=C1NCCCCN1
inactive: [1] > 100 µM | [2] > 100 µM | [3] > 100 µM | [4] > 100 µM | [5] > 100 µM | [6] > 100 µM | [7] > 100 µM | [8] > 100 µM | [9] > 100 µM | [10] > 100 µM | [11] > 100 µM | [12] > 100 µM | [13] > 100 µM | [14] > 100 µM | [15] > 100 µM | [16] > 100 µM | [17] > 100 µM | [18] > 100 µM | [19] > 100 µM

CCC12CN(C(=O)OC)C3C(Br)C1CCC(=O)C32 (stereo not given)
inactive: [1] > 100 µM | [2] > 100 µM | [3] > 100 µM | [4] > 100 µM | [5] > 100 µM | [6] > 100 µM | [7] > 100 µM | [8] > 100 µM | [9] > 100 µM | [10] > 100 µM | [11] > 100 µM | [12] > 100 µM | [13] > 100 µM | [14] > 100 µM | [15] > 100 µM | [16] > 100 µM | [17] > 100 µM | [18] > 100 µM | [19] > 100 µM

NS(=O)(=O)c1ccc(/N=N/c2ccc(O)c(O)c2)cc1
inactive: [1] 15.1 µM | [2] 20 µM | [3] 11.7 µM | [4] 16.9 µM | [5] 15 µM | [6] 24.9 µM | [7] 11.7 µM | [8] 46.2 µM | [9] 7.89 µM | [10] 37 µM | [11] 3.05 µM | [12] 11.2 µM | [13] 48.6 µM | [14] 18.1 µM | [15] 12.6 µM | [16] 14.5 µM | [17] 17.7 µM | [18] 24.3 µM | [19] 25 µM

O=C(O)CCC(NC(=O)OCc1ccccc1)C(=O)NC(Cc1c[nH]cn1)C(=O)O (stereo not drawn) (Cbz-Glu-His-OH; configuration not given here)
inactive: [1] > 100 µM | [2] > 100 µM | [3] > 100 µM | [4] > 100 µM | [5] > 100 µM | [6] > 100 µM | [7] > 100 µM | [8] > 100 µM | [9] > 100 µM | [10] > 100 µM | [11] > 100 µM | [12] > 100 µM | [13] > 100 µM | [14] > 100 µM | [15] > 100 µM | [16] > 100 µM | [17] > 100 µM | [18] > 100 µM | [19] > 100 µM
